Data on 3 compounds can be found in patent publication US20160244845A1, “METHOD FOR DETERMINING THE PROGNOSIS OF PANCREATIC CANCER” (AB SCIENCE, priority 2013, published 2016).

For assay [1], the system named is pancreatic cancer patients. The settings on record: cited from earlier work.
The subject of assay [2] is pancreatic cancer patients. Put plainly: Clinical phase III study AB07012 (ancillary pharmacogenomic study): overall survival of pancreatic cancer patients. The settings on record: ACOX1 subgroup, DCt cut-off <=3.05; 95% CI [0.10; 0.51]; p-value 0.001.

Regarding `C#Cc1cccc(Nc2ncnc3cc(OCCOC)c(OCCOC)cc23)c1` [Erlotinib], the “overall survival (OS) compared to gemcitabine treatment alone” value in assay [1] (in combination treatment with gemcitabine) is on record as “therapeutic benefit”.
Consider `Cc1ccc(NC(=O)c2ccc(CN3CCN(C)CC3)cc2)cc1Nc1nc(-c2cccnc2)cs1` [Masitinib], for which, in assay [2], the “hazard ratio (masitinib treatment effect with respect to placebo)” value came out at 0.23.
Folfirinox: the “survival rates after 2 years compared to gemcitabine alone” value in assay [1] (pancreatic cancer patients) is recorded as “no benefit”. The median overall survival in assay [1] (pancreatic cancer patients, folfirinox: recent phase III study) is 11.1 months.
